US20170296505A1, “LONG-CHAIN CARBOXYCHROMANOLS AND ANALOGS FOR USE AS ANTI-INFLAMMATORY AGENTS” (Purdue Research Foundation, priority 2008, published 2017)
Like-named read-outs stand apart in the source and are kept apart here. Each block holds one compound with its values, some of them ahead of it.

Legend:
[1] = test system: colon HCT116 cancer cells; experiment: HCT116 cell growth / viability (MTT); format: cell-based, human
Protocol: FIG. 9. MTT assay data were obtained after HCT116 colon cancer cells were incubated with curcumin (Cur, 6 μM), δTE-13′-COOH (13′, 10 μM) or their combination for 72 h. *P<0.05 and ***P<0.01 indicate statistically difference between the treatments and vehicle control.
(§1) The relative cell viability as a percentage of the control was determined for control and for each concentration.
This observation supports the idea that the combination of curcumin with 13′-COOHs may offer better anticancer efficacy than either agent alone.

[2] = test system: sulfation of carboxychromanols; experiment: Sulfation of carboxychromanols; details: preliminary data
ovine COX-1 = molecular target: T1, ovine COX-1 (Ovis aries, UniProt P05979); experiment: COX-1 activity assay using purified enzyme; format: biochemical
T1 construct: purchased Cayman Chemicals (Ann Arbor, Mich.)
T1 sequence (P05979 25-600): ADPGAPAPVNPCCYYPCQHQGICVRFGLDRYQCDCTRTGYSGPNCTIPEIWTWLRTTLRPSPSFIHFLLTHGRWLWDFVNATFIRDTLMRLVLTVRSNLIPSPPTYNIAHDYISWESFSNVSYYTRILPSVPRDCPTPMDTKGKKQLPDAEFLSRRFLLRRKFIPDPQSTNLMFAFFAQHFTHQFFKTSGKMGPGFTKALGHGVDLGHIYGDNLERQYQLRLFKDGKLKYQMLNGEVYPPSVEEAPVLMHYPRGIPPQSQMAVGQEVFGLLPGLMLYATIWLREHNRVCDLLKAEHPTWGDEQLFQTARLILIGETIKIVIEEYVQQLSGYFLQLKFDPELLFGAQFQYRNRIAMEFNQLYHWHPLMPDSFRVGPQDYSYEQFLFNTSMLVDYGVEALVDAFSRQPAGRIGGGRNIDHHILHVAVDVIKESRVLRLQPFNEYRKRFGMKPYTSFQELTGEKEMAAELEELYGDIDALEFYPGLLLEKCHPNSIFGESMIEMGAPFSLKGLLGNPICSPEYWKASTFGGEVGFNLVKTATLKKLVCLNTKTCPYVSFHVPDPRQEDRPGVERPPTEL
Protocol: (§2) COX-1 and COX -2 activity assay using purified enzymes—The enzymatic reactions were performed in 0.1M Tris (pH 8.0), in the presence of 5 mM EDTA, 2 mM phenol, and 1 μM heme. […] Enzymatic reactions were initiated by addition of AA at a final concentration of 5 μM for 2 min. The reaction was stopped by addition of 0.1 M HCl. Stannous chloride in 0.1 M HCl was then added to reduce PGG2 and PGH2 to PGF2a. After addition of 0.5 vol of […] NaCl, prostaglandins formed in the reaction were extracted using 2.5 vol of ethyl acetate and the organic layer was completely dried under N2. PGF2a, and PGE2 were quantified using ELISA assays from Cayman Chemicals.

[3] = test system: IL-1beta-stimulated PGE2 formation in A549 cells; experiment: IL-1beta-stimulated PGE2 formation with or without sesamin (Table 4); format: cell-based, human; details: IL-1beta 2 ng/ml, 8 h; 13′-COOH 2.5 uM, sesamin 1 uM
Protocol: Briefly, A549 cells were stimulated with IL-1beta (2 ng/ml) in the presence of DMSO (ctrl, 0.1%), control with sesamin (1 uM), 13′-COOH (structure 1) at 2.5 uM, 13′-COOH with sesamin (1 uM). Basal control was cells incubated with medium without IL-1beta. Eight hours later, media were collected and PGE2 was measured by ELISA.

[4] = test system: human normal CCD841CoN (CCD) colon epithelial cells; experiment: Normal colon epithelial cell viability (MTT); format: cell-based; details: vs. cancer cells
[5] = Metabolite levels after γ-T supplementation in rats; format: in vivo; details: preliminary data
From the text: One important implication of our current findings is that different bioactivity among vitamin E forms may be rooted in their distinct metabolism. To this end, long-chain carboxychromanols may contribute to in vivo anti-inflammatory effect of γ-T (3-2). […] Himmelfard et al. reported that γ-T enriched but not a-T-enriched mixed tocopherol inhibited C-reactive protein and IL-6 in kidney-dialysis patients 36).

[6] = after γ-T supplementation; cited from earlier work
COX-2 [7] = molecular target: T2, COX-2 (Homo sapiens, UniProt P35354); experiment: COX-2 activity assay using purified enzyme; format: biochemical; design: purchased Cayman Chemicals (Ann Arbor, Mich.); IC50 in the enzyme assay: unit not given beside the values
T2 sequence (P35354 18-604): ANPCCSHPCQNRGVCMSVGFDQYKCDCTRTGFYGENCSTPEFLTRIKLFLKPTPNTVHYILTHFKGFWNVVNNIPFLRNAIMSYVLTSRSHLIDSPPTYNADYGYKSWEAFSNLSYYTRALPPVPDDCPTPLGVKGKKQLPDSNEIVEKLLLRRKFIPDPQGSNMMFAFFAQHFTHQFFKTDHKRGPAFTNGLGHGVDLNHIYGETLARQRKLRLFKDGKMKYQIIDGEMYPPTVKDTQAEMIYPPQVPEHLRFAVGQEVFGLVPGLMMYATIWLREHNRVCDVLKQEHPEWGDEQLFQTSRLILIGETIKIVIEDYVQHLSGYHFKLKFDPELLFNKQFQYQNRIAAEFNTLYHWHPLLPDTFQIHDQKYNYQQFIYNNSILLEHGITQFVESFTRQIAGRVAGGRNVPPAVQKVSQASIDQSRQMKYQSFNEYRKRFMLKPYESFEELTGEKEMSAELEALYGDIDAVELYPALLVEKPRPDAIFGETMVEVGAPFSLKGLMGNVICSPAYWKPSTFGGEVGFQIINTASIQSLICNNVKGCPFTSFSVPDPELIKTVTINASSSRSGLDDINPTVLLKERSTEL
Protocol: as §2

COX-2 [8] = molecular target: T2, COX-2; experiment: COX-2 activity in intact cells; format: cell-based; design: A549 cells were pre-treated with 0.5-1 ng/mL of IL-1β- for 6 hours to induce COX-2 expression; endogenous in cells
Protocol: COX-2 activity in intact cells—A549 cells were pre-treated with 0.5-1 ng/mL of IL-1β- for 6 hours to induce COX-2 expression, then incubated with fresh medium containing vitamin E farms, metabolite-containing conditioned medium or control medium for 30 min. […] The enzyme reaction was initiated by addition of 5 μM AA for 5 min, and medium was collected and immediately frozen to −20 C. PGE2 generated was measured as an index of COX-2 activity using an EIA assay from Cayman Chemicals.

5-LOX = molecular target: T3, 5-LOX (Homo sapiens, UniProt P09917); experiment: 5-LOX activity in HL-60 cells differentiated neutrophils; format: cell-based; design: endogenous in cells; host or cells: HL-60 cells differentiated to neutrophils
T3 sequence (P09917 1-674): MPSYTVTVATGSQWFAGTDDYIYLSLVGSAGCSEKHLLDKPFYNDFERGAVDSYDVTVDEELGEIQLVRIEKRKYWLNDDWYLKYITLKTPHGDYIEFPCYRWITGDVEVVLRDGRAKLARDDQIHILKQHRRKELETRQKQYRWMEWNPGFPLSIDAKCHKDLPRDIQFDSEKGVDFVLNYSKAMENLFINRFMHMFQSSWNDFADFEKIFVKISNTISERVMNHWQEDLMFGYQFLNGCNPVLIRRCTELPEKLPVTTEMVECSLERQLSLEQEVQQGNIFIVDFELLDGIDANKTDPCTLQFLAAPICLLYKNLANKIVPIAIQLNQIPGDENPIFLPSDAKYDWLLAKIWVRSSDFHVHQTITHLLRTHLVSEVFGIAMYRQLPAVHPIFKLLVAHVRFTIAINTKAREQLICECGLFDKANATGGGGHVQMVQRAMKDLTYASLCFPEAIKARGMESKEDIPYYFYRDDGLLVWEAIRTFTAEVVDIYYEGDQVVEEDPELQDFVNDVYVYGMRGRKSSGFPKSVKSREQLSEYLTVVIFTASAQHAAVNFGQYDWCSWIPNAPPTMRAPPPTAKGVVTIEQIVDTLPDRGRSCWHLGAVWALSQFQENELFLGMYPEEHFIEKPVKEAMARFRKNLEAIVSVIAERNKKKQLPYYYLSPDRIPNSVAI

[9] = test system: human breast MCF-7 cancer cells; experiment: MCF-7 cell growth (MTT); format: cell-based; details: 5, 10, 20 μM, over 60 hours
Protocol: as §1

[10] = test system: HCT116 colon cancer cells; experiment: Apoptosis by flow cytometry; format: cell-based, human; details: 20 μM, 24 hours
[11] = test system: AOM/DSS-induced colon inflammation and tumorigenesis; experiment: AOM/DSS-induced colon cancer model; format: in vivo, Balb/c mice; details: 0.025% diet
Protocol: AOM is a carcinogen and DSS administered in drinking water causes colon inflammation that promotes colon tumorigenesis. Therefore, the AOM-DSS model represents inflammation (colitis)-promoted colon cancer. In FIG. 5A, the experimental design is shown. At day 0, AOM is administered to the Balb/c mice.

DSS-induced colitis = DSS-induced colitis model; format: in vivo, mice
HT29 colon cancer cells = experiment: HT-29 cell viability (MTT); format: cell-based, human
Protocol: FIG. 8. […] Relative cell viability was measured by MTT assay after cells were treated with STE-13′ at indicated concentrations and times compared with DMSO controls. […] The data are mean±SD from at least three independent experiments. *p <0.05 and **p<0.01 indicate a significant difference between treated and DMSO-control cells
Besides HT29 colon cancer cells, we also observed similar anticancer effects of δTE-13-COOH on HCT116 colon cancer cells (FIG. 4C) and MCF7 breast cancer cells (FIG. 4A).

COX-2 [12] = molecular target: T2, COX-2; experiment: COX-2 inhibition with purified human enzyme (Table 3); format: biochemical; design: A549 cells were pre-treated with 0.5-1 ng/mL of IL-1β- for 6 hours to induce COX-2 expression; endogenous in cells; details: mean±SEM
From the text: Free radical biology & medicine 95, 190-199. Results are mean±SEM based on four or more independent experiments.

COX-2 [13] = molecular target: T2, COX-2; design: A549 cells were pre-treated with 0.5-1 ng/mL of IL-1β- for 6 hours to induce COX-2 expression; endogenous in cells; details: previously reported; read-out: IC50 COX-2 in A549 cells; cited from earlier work
[14] = purified enzyme, Not inhibit: 9′ at 20 μM, acetaminophen at 250 μM
[15] = Table 2, read-out: IC50 COX-2 activity in intact cells
[16] = intact cells, COX-2 pre-induced by IL-1β, 5 μM AA, read-out: IC50 COX-2 in A549 cells
[17] = at maximum concentration of 20 μM
[18] = purified enzyme, Not inhibit: 9′ at 20 μM, acetaminophen at 250 μM, listed as F-CEHC

SMILES: COc1cc(/C=C/C(=O)CC(=O)/C=C/c2ccc(O)c(OC)c2)ccc1O [curcumin, reference compound]
cytotoxicity at 6 µM ([1]; Homo sapiens, HCT-116, curcumin 6 μM, δTE-13′-COOH 10 μM or their combination, 72 h, read-out: reduction of colon cancer cell viability): 35%
sulfation of carboxychromanols [2]: inhibits sulfation

IC50 (ovine COX-1; [14]): 5 ± 2 µM
amount found in feces [5]: > 100 nmol/g
IC50 (COX-2 [7]; [14]): 4 ± 2 µM
IC50 (COX-2 [8]; [15]): 4 ± 2 µM
IC50 (COX-2 [8]; [16]): 6 ± 2 µM
SMILES: Cc1cc(O)cc2c1OC(C)(CCCC(C)CCCC(C)CCCC(C)C(=O)O)CC2 (centres unmarked) [13′, 13-(6-hydroxy-2,8-dimethylchroman-2-yl)-2,6,10-trimethyltridecanoic acid]
PGE2 [3]: 3.21 ± 0.9 ng/mL
sensitivity of normal cells (anti-proliferation, 24-h incubation) [4]: much less sensitive
detection in the plasma and liver [6]: significant amounts

SMILES: Cc1cc(O)cc2c1OC(C)(CCCC(C)CCCC(C)C(=O)O)CC2 (centres unmarked) [9′]
inhibition of COX-1 (ovine COX-1; [17]): did not inhibit
IC50 COX-1 (ovine COX-1; [14]): Not inhibit*
detection in the plasma and liver [6]: not
inhibition of COX-2 (COX-2 [7]; [17]): did not inhibit
IC50 COX-2 (COX-2 [7]; [14]): Not inhibit*
estimated IC50 of 5-LOX activity (5-LOX): low microM
IC50 (COX-2 [8]; [16]): 7 ± 2 µM

food intake [11]: no effect
IC50 (COX-2 [8]; [15]): 4 ± 1 µM
IC50 (COX-2 [12]): 9.8 ± 2 µM
SMILES: C/C(=C\CC/C(C)=C/CCC1(C)CCc2cc(O)cc(C)c2O1)CC/C=C(\C)C(=O)O (centres unmarked) [δTE-13′, (2E,6E,10E)-13-(6-hydroxy-2,8-dimethylchroman-2-yl)-2,6,10-trimethyltrideca-2,6,10-trienoic acid]
cancer cell growth (MTT) [9]: dose-dependently inhibits
cancer cell growth (MTT) ([1]; 5, 10, 20 μM, over 60 hours): dose-dependently inhibits
reduction of colon cancer cell viability ([1]; curcumin 6 μM, δTE-13′-COOH 10 μM or their combination, 72 h): 11-12%
cells in early stage apoptosis [10]: 7.92%
cells in late stage apoptosis [10]: 22.9%
body weight [11]: no effect
decrease of total tumor multiplicity ([11]; P<0.01): 34%
decrease of large polyps ([11]; P<0.05): 58%
DSS-induced inflammation (fecal bleeding) ([11]; second cycle of DSS): significantly attenuated
colitis score (DSS-induced colitis; compared to the DSS-treated control): significantly decreased colitis score
DSS-induced diarrhea and fecal bleeding (DSS-induced colitis; in diet): significantly mitigated
cancer cell growth (MTT) (HT29 colon cancer cells): dose- and time-dependent manner

IC50 (ovine COX-1; [14]): 300 ± 50 µM
IC50 (ovine COX-1; [18]): 300 to 500 µM
IC50 in the enzyme assay (COX-2 [7]; assays using purified COX-1 or COX-2): > 3000/1
IC50 (COX-2 [7]; [14]): 450 ± 50 µM
IC50 (COX-2 [7]; [18]): 300 to 500 µM
SMILES: Cc1c(O)cc2c(c1C)OC(C)(CCC(=O)O)CC2 (centres unmarked) [γ-CEHC, reference compound]
IC50 (COX-2 [13]): 30 to 70 µM
